Measured values reported in patent US20220281848A1, “PYRAZOLE-SUBSTITUTED PYRROLIDINONES AS HERBICIDES” (FMC Corporation, priority 2019, published 2022).

Tested on: plants
Assay: Test D pre-emergence, other plants of Tables D1 and D3
Format: in vivo
Conditions: for damage to plant (100=total damage to plant; 0=no damage to plant), BIDPI / damage to plant (100=total damage to plant; 0=no damage to plant), BRAPL / damage to plant (100=total damage to plant; 0=no damage to plant), CYPES / damage to plant (100=total damage to plant; 0=no damage to plant), EPHHL / damage to plant (100=total damage to plant; 0=no damage to plant), GLXMA / damage to plant (100=total damage to plant; 0=no damage to plant), IPOHE / damage to plant (100=total damage to plant; 0=no damage to plant), SORVU / ABUTH damage to plant (100=total damage; 0=no damage) / AMARE damage to plant (100=total damage; 0=no damage) / DIGSA damage to plant (100=total damage; 0=no damage) / ECHCG damage to plant (100=total damage; 0=no damage) / ORYSA damage to plant (100=total damage; 0=no damage) / PANMI damage to plant (100=total damage; 0=no damage) / SETFA damage to plant (100=total damage; 0=no damage): preemergent; for damage to plant (100=total damage to plant; 0=no damage to plant), BIDPI / damage to plant (100=total damage to plant; 0=no damage to plant), BRAPL / CHEAL damage rating / damage to plant (100=total damage to plant; 0=no damage to plant), CYPES / damage to plant (100=total damage to plant; 0=no damage to plant), EPHHL / GALAP damage rating / damage to plant (100=total damage to plant; 0=no damage to plant), GLXMA / damage to plant (100=total damage to plant; 0=no damage to plant), IPOHE / KCHSC damage rating / LOLPE damage rating / POAAN damage rating / damage to plant (100=total damage to plant; 0=no damage to plant), SORVU / STEME damage rating / VERPE damage rating: 20 DAA; for CHEAL damage rating / GALAP damage rating / KCHSC damage rating / LOLPE damage rating / POAAN damage rating / STEME damage rating / VERPE damage rating / damage to plant, ALOMY / damage to plant, AVEFA / damage to plant, BEAVA / damage to plant, BROTE / damage to plant, BRSNN / damage to plant, HORVW / damage to plant, SINAR: pre-emergence, 100=total damage, 0=no damage
Summary of the method: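 Seeds treated with herbicide safener; sown in soil; glasshouse, 16 h light, 65% humidity. Sprayed day 1 (pre) or ~day 12 (post). Spray in 0.2% v/v adjuvant. Scored 0–100 damage: 20 DAA pre, 15 d post.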

## CN1CC(c2cc(C(F)(F)F)n(C)n2)C(C(=O)Nc2ccc(F)cc2C(C)(F)F)C1=O (racemic) [Compound 26]
Rate 15
  damage to plant (100=total damage to plant; 0=no damage to plant), BIDPI: 0
  damage to plant (100=total damage to plant; 0=no damage to plant), BRAPL: 0
  damage to plant (100=total damage to plant; 0=no damage to plant), CYPES: 0
  damage to plant (100=total damage to plant; 0=no damage to plant), EPHHL: 0
  damage to plant (100=total damage to plant; 0=no damage to plant), GLXMA: 0
  damage to plant (100=total damage to plant; 0=no damage to plant), IPOHE: 0
  damage to plant (100=total damage to plant; 0=no damage to plant), SORVU: 0
Rate 30
  damage to plant (100=total damage to plant; 0=no damage to plant), BIDPI: 0
  damage to plant (100=total damage to plant; 0=no damage to plant), BRAPL: 70
  damage to plant (100=total damage to plant; 0=no damage to plant), CYPES: 0
  damage to plant (100=total damage to plant; 0=no damage to plant), EPHHL: 0
  damage to plant (100=total damage to plant; 0=no damage to plant), GLXMA: 0
  damage to plant (100=total damage to plant; 0=no damage to plant), IPOHE: 0
  damage to plant (100=total damage to plant; 0=no damage to plant), SORVU: 0
Rate 60
  damage to plant (100=total damage to plant; 0=no damage to plant), BIDPI: 0
  damage to plant (100=total damage to plant; 0=no damage to plant), BRAPL: 80
  damage to plant (100=total damage to plant; 0=no damage to plant), CYPES: 0
  damage to plant (100=total damage to plant; 0=no damage to plant), EPHHL: 0
  damage to plant (100=total damage to plant; 0=no damage to plant), GLXMA: 0
  damage to plant (100=total damage to plant; 0=no damage to plant), IPOHE: 0
  damage to plant (100=total damage to plant; 0=no damage to plant), SORVU: 0
Rate 130
  damage to plant (100=total damage to plant; 0=no damage to plant), BIDPI: 0
  damage to plant (100=total damage to plant; 0=no damage to plant), BRAPL: 80
  damage to plant (100=total damage to plant; 0=no damage to plant), CYPES: 0
  damage to plant (100=total damage to plant; 0=no damage to plant), EPHHL: 0
  damage to plant (100=total damage to plant; 0=no damage to plant), GLXMA: 0
  damage to plant (100=total damage to plant; 0=no damage to plant), IPOHE: 0
  damage to plant (100=total damage to plant; 0=no damage to plant), SORVU: 0
Rate 250
  damage to plant (100=total damage to plant; 0=no damage to plant), BIDPI: 0
  damage to plant (100=total damage to plant; 0=no damage to plant), BRAPL: 80
  damage to plant (100=total damage to plant; 0=no damage to plant), CYPES: 0
  damage to plant (100=total damage to plant; 0=no damage to plant), EPHHL: 0
  damage to plant (100=total damage to plant; 0=no damage to plant), GLXMA: 0
  damage to plant (100=total damage to plant; 0=no damage to plant), IPOHE: 0
  damage to plant (100=total damage to plant; 0=no damage to plant), SORVU: 0
Rate 500
  damage to plant (100=total damage to plant; 0=no damage to plant), BIDPI: 0
  damage to plant (100=total damage to plant; 0=no damage to plant), BRAPL: 80
  damage to plant (100=total damage to plant; 0=no damage to plant), CYPES: 10
  damage to plant (100=total damage to plant; 0=no damage to plant), EPHHL: 0
  damage to plant (100=total damage to plant; 0=no damage to plant), GLXMA: 0
  damage to plant (100=total damage to plant; 0=no damage to plant), IPOHE: 0
  damage to plant (100=total damage to plant; 0=no damage to plant), SORVU: 0
Rates 15
  CHEAL damage rating: 0
  GALAP damage rating: 0
  KCHSC damage rating: 0
  LOLPE damage rating: 0
  POAAN damage rating: 0
  STEME damage rating: 0
  VERPE damage rating: 0
Rates 30
  CHEAL damage rating: 0
  GALAP damage rating: 0
  KCHSC damage rating: 0
  LOLPE damage rating: 0
  POAAN damage rating: 0
  STEME damage rating: 0
  VERPE damage rating: 0
Rates 60
  CHEAL damage rating: 0
  GALAP damage rating: 0
  KCHSC damage rating: 0
  LOLPE damage rating: 0
  POAAN damage rating: 0
  STEME damage rating: 0
  VERPE damage rating: 0
Rates 130
  CHEAL damage rating: 0
  GALAP damage rating: 0
  KCHSC damage rating: 0
  LOLPE damage rating: 30
  POAAN damage rating: 30
  STEME damage rating: 10
  VERPE damage rating: 0
Rates 250
  CHEAL damage rating: 10
  GALAP damage rating: 0
  KCHSC damage rating: 0
  LOLPE damage rating: 90
  POAAN damage rating: 60
  STEME damage rating: 40
  VERPE damage rating: 10
Rates 500
  CHEAL damage rating: 10
  GALAP damage rating: 20
  KCHSC damage rating: 0
  LOLPE damage rating: 90
  POAAN damage rating: 100
  STEME damage rating: 70
  VERPE damage rating: 80
Rate 15, 20 DAA
  damage to plant, ALOMY: 0
  damage to plant, AVEFA: 0
  damage to plant, BEAVA: 0
  damage to plant, BROTE: 0
  damage to plant, BRSNN: 0
  damage to plant, HORVW: 0
  damage to plant, SINAR: 0
Rate 30, 20 DAA
  damage to plant, ALOMY: 0
  damage to plant, AVEFA: 0
  damage to plant, BEAVA: 0
  damage to plant, BROTE: 0
  damage to plant, BRSNN: 0
  damage to plant, HORVW: 0
  damage to plant, SINAR: 0
Rate 60, 20 DAA
  damage to plant, ALOMY: 0
  damage to plant, AVEFA: 0
  damage to plant, BEAVA: 0
  damage to plant, BROTE: 0
  damage to plant, BRSNN: 0
  damage to plant, HORVW: 0
  damage to plant, SINAR: 0
Rate 130, 20 DAA
  damage to plant, ALOMY: 10
  damage to plant, AVEFA: 10
  damage to plant, BEAVA: 0
  damage to plant, BROTE: 0
  damage to plant, BRSNN: 0
  damage to plant, HORVW: 10
  damage to plant, SINAR: 0
Rate 250, 20 DAA
  damage to plant, ALOMY: 70
  damage to plant, AVEFA: 50
  damage to plant, BEAVA: 0
  damage to plant, BRSNN: 0
  damage to plant, HORVW: 40
  damage to plant, SINAR: 0
Rate 500, 20 DAA
  damage to plant, ALOMY: 70
  damage to plant, AVEFA: 90
  damage to plant, BEAVA: 0
  damage to plant, BROTE: 10
  damage to plant, BRSNN: 10
  damage to plant, HORVW: 30
  damage to plant, SINAR: 0
Rates 15, 20 DAA
  ABUTH damage to plant (100=total damage; 0=no damage): 0
  AMARE damage to plant (100=total damage; 0=no damage): 0
  DIGSA damage to plant (100=total damage; 0=no damage): 20
  ECHCG damage to plant (100=total damage; 0=no damage): 0
  ORYSA damage to plant (100=total damage; 0=no damage): 0
  PANMI damage to plant (100=total damage; 0=no damage): 0
  SETFA damage to plant (100=total damage; 0=no damage): 0
Rates 30, 20 DAA
  ABUTH damage to plant (100=total damage; 0=no damage): 0
  AMARE damage to plant (100=total damage; 0=no damage): 0
  DIGSA damage to plant (100=total damage; 0=no damage): 90
  ECHCG damage to plant (100=total damage; 0=no damage): 10
  ORYSA damage to plant (100=total damage; 0=no damage): 0
  PANMI damage to plant (100=total damage; 0=no damage): 0
  SETFA damage to plant (100=total damage; 0=no damage): 20
Rates 60, 20 DAA
  ABUTH damage to plant (100=total damage; 0=no damage): 0
  AMARE damage to plant (100=total damage; 0=no damage): 0
  DIGSA damage to plant (100=total damage; 0=no damage): 90
  ECHCG damage to plant (100=total damage; 0=no damage): 30
  ORYSA damage to plant (100=total damage; 0=no damage): 0
  PANMI damage to plant (100=total damage; 0=no damage): 0
  SETFA damage to plant (100=total damage; 0=no damage): 70
Rates 130, 20 DAA
  ABUTH damage to plant (100=total damage; 0=no damage): 0
  AMARE damage to plant (100=total damage; 0=no damage): 0
  DIGSA damage to plant (100=total damage; 0=no damage): 90
  ECHCG damage to plant (100=total damage; 0=no damage): 20
  ORYSA damage to plant (100=total damage; 0=no damage): 0
  PANMI damage to plant (100=total damage; 0=no damage): 0
  SETFA damage to plant (100=total damage; 0=no damage): 90
Rates 250, 20 DAA
  ABUTH damage to plant (100=total damage; 0=no damage): 0
  AMARE damage to plant (100=total damage; 0=no damage): 70
  DIGSA damage to plant (100=total damage; 0=no damage): 90
  ECHCG damage to plant (100=total damage; 0=no damage): 60
  ORYSA damage to plant (100=total damage; 0=no damage): 0
  PANMI damage to plant (100=total damage; 0=no damage): 0
  SETFA damage to plant (100=total damage; 0=no damage): 90
Rates 500, 20 DAA
  ABUTH damage to plant (100=total damage; 0=no damage): 0
  AMARE damage to plant (100=total damage; 0=no damage): 60
  DIGSA damage to plant (100=total damage; 0=no damage): 90
  ECHCG damage to plant (100=total damage; 0=no damage): 90
  ORYSA damage to plant (100=total damage; 0=no damage): 0
  PANMI damage to plant (100=total damage; 0=no damage): 0
  SETFA damage to plant (100=total damage; 0=no damage): 90
